Results from patent US7705050B2, “Amides, useful in the inhibition of IL-8-induced chemotaxis of neutrophils” (priority 2000, dated 2010).

Experiments:
[1] = test system: human PMNs stimulated by IL-8; experiment: Chemotaxis of human PMNs stimulated by IL-8 (48-well microchamber); assay type: cell-based; settings: for activity on chemotaxis induced by IL-8, in words: Tables 1 and 2; for % inhibition of leucocyte chemotaxis: Table 3, diastereoisomers of ibuprophenoyl-alanine
Description: For in vitro evaluation of the compounds of the invention, polymorphonucleated leucocytes were used (hereinafter referred to as PMNs) isolated from heparinized human blood, taken from consenting healthy adults, by means of sedimentation on dextrane; the mononucleated cells were removed by means of Ficoll/Hypaque, whilst the red blood cells were eliminated by treatment with hypotonic solutions. The cell vitality of the PMNs was calculated by exclusion with Tripan blue, whilst the percentage of PMNs on the cytocentrifugate was estimated after staining with Diff Quinck., in accordance with the procedure described by W. J. Ming et al., J. Immunol., 138, 1469, 1987. In each of the experiments, which will be described in details below, the pre-incubations were carried out at a temperature of 37° C., observing incubation times of 10 minutes with the compounds under examination.
In the chemotaxis experiments and in those aimed at measuring the cytosol levels of the Ca^++ ion, recombinant human interleukin-8 (rhIL-8, Pepro Tech) was used; the lyophilized protein was dissolved in HBSS (Hank's balanced salts solution) at the concentration of 100 mcg/mL, and then diluted down to a concentration of 10 ng/mL in the chemotaxis experiments, to that a concentration of 25-50 ng/mL in the evaluation of the intracellular modifications of Ca^2+ (i.e. [Ca^2+]i) and to that a concentration of 400 ng/ml in the evaluation of tyrosine kinase activation.
During the chemotaxis assay (according to W. Falket et al., J. Immunol. Methods, 33, 239, 1980) PVP-free filters were used having a porosity of 5 mcm and microchambers made of plexiglas suitable for carrying out the replication.
The compounds being studied were added at one and the same concentration in the top-level wells that contained the suspension of PMNs, and in the wells of the bottom level that contained the vehicle to which IL-8 (or, if so desired, another stimulating agent) was added or otherwise.

TNF-α [2] = settings: in the presence of LPSs and of S-ketoprofen 10^−5 M; LPSs alone 10±5 ng/mL; cited from earlier work
TNF-α [3] = experiment: TNF-α production in murine macrophages stimulated by LPS or H2O2; assay type: cell-based; settings: stimulated in murine macrophages by H2O2 and by liposaccharides
PGE2 = PGE2 synthesis in murine macrophages stimulated with lipopolysaccharides; assay type: cell-based; settings: after stimulation with LPSs at 1 μg/mL
[4] = Table 2, compounds 10^−8 M, IL-8 10 ng/mL
[5] = Table 1, compound conc. 10^−8 M, IL-8 10 ng/mL

| Compound | % inhibition of chemotaxis of human PMNs stimulated by IL-8 (10 ng/mL) [1, 4] [%] | activity on chemotaxis induced by IL-8, in words [1] | other results |
| --- | --- | --- | --- |
| Cc1ccnc(NC(=O)[C@H](C)c2cccc(C(=O)c3ccccc3)c2)c1 [R(−)-2-[(5′-benzoyl)phenyl]-N-(4″methyl-2″-pyridyl)propionamide, reference compound] |  |  | % inhibition of chemotaxis of human PMNs stimulated by IL-8 (10 ng/mL) ([1]; Table 4, IL-8 10 ng/mL): −15 ± 25% |
| CC(C)Cc1ccc([C@@H](C)C(=O)NCCOCCO)cc1 [Compound 8, R(−)-2-[(4′-isobutyl)phenyl]-N-(2″-hydroxyethoxyethyl)propionamide] | 40 ± 4 | restored |  |
| CC(C)Cc1ccc([C@@H](C)C(=O)NCCO)cc1 [Compound 3, R(−)-2-(4′-isobutyl)phenyl-N-(2′-hydroxyethyl)propionamide] | 20 ± 11 | decrease in the biological activity |  |
| Cc1ccnc(NC(=O)[C@@H](C)c2cccc(C(=O)c3ccccc3)c2)c1 [S(+)-2-[(5′-benzoyl)phenyl]-N-(4″-methyl-2″-pyridyl)propionamide, reference compound] |  |  | % inhibition of chemotaxis of human PMNs stimulated by IL-8 (10 ng/mL) ([1]; Table 4, IL-8 10 ng/mL): −1 ± 10% |
| CC(C)Cc1ccc([C@@H](C)C(=O)N[C@@H](CO)C(=O)O)cc1 [Compound 7] | 12 ± 4 | decrease in the biological activity |  |
| CC(C)Cc1ccc([C@@H](C)C(=O)Nc2ccccn2)cc1 [Compound 10, R(−)-2-(4′-isobutyl)phenyl-N-(2′-pyridyl)propionamide] | 36 ± 6 | good activity |  |
| CC(C)Cc1ccc([C@@H](C)C(=O)N[C@@H](C)C(=O)O)cc1 [Compound 5] | 65 ± 9 | marked “pro-kinetic” paradox effect | inhibition of chemotaxis induced by IL-8, dose dependence ([1]; IL-8 10 ng/mL, concentration range from 10^−8 to 10^−10 M): inhibits, in a dose-dependent way; % inhibition of leucocyte chemotaxis [1]: 65 ± 9% |
| CC(C)Cc1ccc([C@@H](C)C(N)=O)cc1 [Compound 1, (R)-2-(4-isobutyl-phenyl)-propionamide, reference compound] | 57 ± 12 | active | % inhibition of chemotaxis of human PMNs stimulated by IL-8 (10 ng/mL) [1, 5]: 57 ± 12% |
| CC(C)Cc1ccc([C@@H](C)C(=O)NCC(=O)O)cc1 [Compound 4, R(−)-2-[(4′-isobutyl)phenyl]-N-carboxymethyl propionamide] | 45 ± 8 | inhibitory effect on chemotaxis |  |
| Cc1ccnc(NC(=O)[C@H](C)c2ccc(CC(C)C)cc2)c1 [R(−)-2-[(4′-isobutyl)phenyl]-N-(4″-methyl-2″-pyridyl)propionamide, reference compound] |  |  | % inhibition of chemotaxis of human PMNs stimulated by IL-8 (10 ng/mL) ([1]; Table 4, IL-8 10 ng/mL): −12 ± 2% |
| C[C@H](C(=O)O)c1cccc(C(=O)c2ccccc2)c1 [S-ketoprofen] |  |  | TNF-α in the incubation medium (TNF-α [2]): 39 ± 5 ng/mL |
| CC(C)Cc1ccc([C@H](C)C(=O)N[C@@H](C)C(=O)O)cc1 [S,L, reference compound] |  |  | % inhibition of leucocyte chemotaxis [1]: 4 ± 13% |
| CC(C)Cc1ccc([C@H](C)C(=O)N[C@H](C)C(=O)O)cc1 [S,D, reference compound] |  |  | % inhibition of leucocyte chemotaxis [1]: 4 ± 19% |
| CC(C)Cc1ccc([C@H](C)C(N)=O)cc1 [(S)-2-(4-isobutyl-phenyl)-propionamide, reference compound] |  | altogether absent | % inhibition of chemotaxis of human PMNs stimulated by IL-8 (10 ng/mL) [1, 5]: −2 ± 8% |
| Cc1ccnc(NC(=O)[C@@H](C)c2ccc(CC(C)C)cc2)c1 [S(+)-2-[(4′-isobutyl)phenyl]-N-(4″-methyl-2″-pyridyl)propionamide, reference compound] |  |  | % inhibition of chemotaxis of human PMNs stimulated by IL-8 (10 ng/mL) ([1]; Table 4, IL-8 10 ng/mL): −3 ± 5% |
| CC(C)Cc1ccc([C@@H](C)C(=O)Nc2cccnc2)cc1 [Compound 11, R(−)-2-[(4′-isobutyl)phenyl]-N-(3″-pyridyl)propionamide] | 11 ± 10 | poor activity |  |
| CC(C)Cc1ccc([C@@H](C)C(=O)N[C@H](C)C(=O)O)cc1 [Compound 6, (R,R′)-2-[(4′-isobutyl)phenyl]-N-(2″-carboxyethyl)propionamide] | −17 ± 6 | inhibitory effect on chemotaxis | % inhibition of leucocyte chemotaxis [1]: −17 ± 6% |
| CNC(=O)[C@H](C)c1ccc(CC(C)C)cc1 [Compound 2, R(−)-2-(4′-isobutyl)phenyl-N-methyl propionamide] | 25 ± 9 |  | % inhibition of leucocyte chemotaxis stimulated by IL-8 (10 ng/mL) ([1]; concentration of 10^−8 M): 25±9%; production of TNF-α (TNF-α [3]): down-regulate the production of TNF-α; synthesis of PGE2 in the macrophages (PGE2): do not inhibit |
| CC(C)Cc1ccc([C@@H](C)C(=O)Nc2ccccc2)cc1 [Compound 9, R(−)-2-(4′-isobutyl)phenyl-N-phenyl propionamide] | 9 ± 10 | poor activity |  |
| CC(C)Cc1ccc([C@@H](C)C(=O)Nc2ccncc2)cc1 [Compound 12] | 61 ± 8 | good activity |  |
